Structures can show the parent of a compound that is named as a salt. Where two headings read alike, the source gives them in different places.
Legend:
human platelets = experiment: In vitro inhibition of collagen-induced platelet aggregation, human platelets (PRP); format: cell-based; conditions: 0.05 h, collagen 5 μg/ml, 3 minutes of contact at 37° C., read-out: IC50 (M) in vitro, Man
Experimental: (§1) A study of the inhibitory activity of the compounds of formula I on platelet aggregation was carried out in vitro, i.e. by direct contact of solutions of variable concentrations of the compounds with platelets freshly separated from a sample of total blood, taken under standardized conditions, from laboratory animals (guinea pigs) and from healthy human subjects who have not received any substances or drugs that might interfere with blood clotting. The anti-platelet-aggregating activity was also studied ex vivo/vitro, i.e. after administration of the substances claimed to guinea pigs to measure the intensity and duration of the anti-aggregating action induced by the fraction of the test product absorbed and circulating in the blood.
Venous blood is taken from a group of ten healthy human subjects of the same age, by puncture into a vein of the fold of the elbow and is collected in a glass tube containing aqueous 0.129 M sodium citrate solution (1 volume of citrate solution per 9 volumes of blood). Each tube is then centrifuged a first time at 20° C. and 100 g for 15 minutes in order to obtain the platelet-rich plasma (PRP); after removing this PRP, the tube is again centrifuged at 2000 g for 15 minutes in order this time to remove the platelet-poor plasma (PPP).
For each identified sample of PRP, the platelets are counted using a Coulter ZM counter. Each sample is then used to study the variation in inhibition of the platelet aggregation triggered by the addition of a Chromo-par Reagent collagen glucose solution from Coultronics (used at a concentration of 5 μg/ml) as a function of the addition of increasing concentrations of each compound in a range covering the interval 10^-8 M→10^-5 M, (example of concentrations: 10^-8 M, […], 6×10^-6 M, 4×10^-6 M, 2×10^-6 M, 10^-6 M, […], 10^-5 M). Beforehand, for each compound, an aqueous 10^-3 M solution is prepared. A control test intended to check the possible effect of the solvents (reference value) on the platelet aggregation is introduced into each measurement series, and is measured after 3 minutes of contact at 37° C. with agitation.
From the percentages of inhibition of the platelet aggregation measured for each concentration of each compound, the 50% inhibitory concentration (IC50) is calculated.

guinea pig platelets [1] = experiment: Ex vivo/vitro inhibition of platelet aggregation after administration via the gastric route in guinea pigs; design: species or system guinea pig (Dunkin-Hartley); conditions: Cavia porcellus, Platelet, fasted guinea pigs
Experimental: as §1, with “blood. Evaluation of the anti-platelet-aggregating activity of the compounds is carried out in the same guinea pigs as those mentioned above (Dunkin-Hartley strain). […] The allocation of the treatments to the animals is random. The blood is taken and then treated under the same conditions as those described above for the in vitro studies. The results of the inhibition of the platelet aggregation obtained for each test concentration make it possible to calculate the IC50 concentration of each test product and the kinetics of the inhibitory effect and its duration of action.” for “blood.”

guinea pig platelets [2] = experiment: In vitro inhibition of collagen-induced platelet aggregation, guinea pig platelets (PRP); format: cell-based, guinea pig (male Dunkin-Hartley); conditions: Cavia porcellus, Platelet, 0.05 h, collagen 1 μg/ml, 3 minutes of contact at 37° C.
Experimental: as §1
Blood is taken by intracardiac puncture from male Dunkin-Hartley guinea pigs (weighing about 330 g), at a rate of 4.5 ml per 0.5 ml of trisodium citrate (concentration of the aqueous solution: 1.55%) in order to prevent all trace of clotting. The platelet-rich plasma (PRP) is obtained by centrifuging the tubes of total blood for 15 minutes at 150 g.
The PRPs are collected as "pools". The platelets contained in these pools are counted using a Coulter ZM haematology automatic device: if necessary, a dilution is carried out in order for the platelet concentration in the plasma to be between 200,000 and 400,000 platelets/mm^3. Simultaneously, other samples of these pools serve to prepare the platelet-poor plasma (PPP) by centrifugation at 1500 g for 15 minutes.
The kinetic study of the platelet aggregation is carried out by adding a collagen solution (1 μg/ml) to a volume of PRP, using a Chrono-log Corporation aggregometer (490-D1 or 560 VS) which uses an optical detection of the appearance of the thrombus.
The measurements of the aggregation inhibition are carried out after 3 minutes of contact at 37° C. with agitation.

[3] = 1 h before blood sampling, read-out: % of g.r. inhibition guinea pig ex vivo, d = 10 mg/kg, 1 h
[4] = 1 h before blood sampling, read-out: % of g.r. inhibition guinea pig ex vivo, d = 150 mg/kg, 1 h
[5] = 2 h before blood sampling, read-out: % of g.r. inhibition guinea pig ex vivo, d = 150 mg/kg, 2 h
[6] = 2 h before blood sampling, read-out: % of g.r. inhibition guinea pig ex vivo, d = 10 mg/kg, 2 h

| SMILES | IC50 (human platelets) [M] | inhibition at 10 mg/kg (guinea pig platelets [1]; [3]) [%] | inhibition at 150 mg/kg (guinea pig platelets [1]; [4]) [%] | inhibition at 150 mg/kg (guinea pig platelets [1]; [5]) [%] | IC50 (guinea pig platelets [2]) [nM] | inhibition at 10 mg/kg (guinea pig platelets [1]; [6]) [%] |
| --- | --- | --- | --- | --- | --- | --- |
| O=C(O)CC(NC(=O)CNC(=O)C(CCC1CCNCC1)CCC1CCNCC1)c1ccc2c(c1)OCO2 (stereo not drawn) [Example 5, 3-(1,3-Benzodioxol-5-yl)-3-{[2-({4-(4-piperidyl)-2-[2-(4-piperidyl)ethyl]butanoyl}amino)acetyl]amino}-propanoic Acid Dihydrochloride] | 2.8e-07 | -15 | -63 | -66 | 2000 |  |
| CC(C)c1ccc(C(CC(=O)O)NC(=O)CNC(=O)C(CCC2CCNCC2)CCC2CCNCC2)cc1 (stereo not drawn) [Example 6, 3-(4-Isopropylphenyl)-3-{[2-({4-(4-piperidyl)-2-[2-(4-piperidyl)ethyl]butanoyl}amino)acetyl]amino}propanoic Acid Dihydrochloride] | 2.7e-06 |  | -9 | -4 | 14000 |  |
| COc1ccc(C(CC(=O)O)NC(=O)CNC(=O)C(CCC2CCNCC2)CCC2CCNCC2)cc1OC (stereo not drawn) [Example 8, 3-(3,4-Dimethoxyphenyl)-3-{[2-({4-(4-piperidyl)-2-[2-(4-piperidyl)ethyl]butanoyl}amino)acetyl]amino}propanoic Acid Dihydrochloride] | 1.6e-06 |  | -10 | -31 | 35000 |  |
| COc1cccc(C(CC(=O)O)NC(=O)CNC(=O)C(CCC2CCNCC2)CCC2CCNCC2)c1 (stereo not drawn) [Example 10, 3-(3-Methoxyphenyl)-3-{[2-({4-(4-piperidyl)-2-[2-(4-piperidyl)ethyl]butanoyl}amino)acetyl]amino}propanoic Acid Dihydrochloride] | 9.2e-07 |  | -14 | -18 | 13000 |  |
| O=C(O)CC(NC(=O)CNC(=O)C(CCC1CCNCC1)CCC1CCNCC1)c1cccnc1 (stereo not drawn) [Example 12, 3-(3-Pyridyl)-3-{[2-({4-(4-piperidyl)-2-[2-(4-piperidyl)ethyl]butanoyl}amino)acetyl]amino}propanoic Acid Trihydrochloride] | 1.5e-06 |  | -74 | -68 | 980 |  |
| O=C(O)CC(CCc1ccccc1)NC(=O)CNC(=O)C(CCC1CCNCC1)CCC1CCNCC1 (stereo not drawn) [Example 15, 5-Phenyl-3-{[2-({4-(4-piperidyl)-2-[2-(4-piperidyl)ethyl]butanoyl}amino)acetyl]amino}pentanoic Acid Dihydrochloride] | 1.5e-07 |  | -84 | -26 | 4300 |  |
| O=C(O)C[C@H](NC(=O)CNC(=O)C(CCC1CCNCC1)CCC1CCNCC1)C(=O)NC12CC3CC(CC(C3)C1)C2 [Example 16, (3S)-4-(1-Adamantylamino)-4-oxo-3-{[2-({4-(4-piperidyl)-2-[2-(4-piperidyl)ethyl]butanoyl}amino)acetyl]amino}butanoic Acid Dihydrochloride] | 8.5e-07 | -5 | -54 | -47 | 3500 |  |
| O=C(O)C[C@H](NC(=O)CNC(=O)C(CCC1CCNCC1)CCC1CCNCC1)C(=O)NCCc1cccc2[nH]ccc12 [Example 17, (3S)-4-{[2-(1H-Indol-4-yl)ethyl]amino}-4-oxo-3-{[2-({4-(4-piperidyl)-2-[2-(4-piperidyl)ethyl]butanoyl}amino)acetyl]amino}butanoic Acid Dihydrochloride] | 6e-06 |  | -19 |  | 7400 |  |
| O=C(CNC(=O)C(CCC1CCNCC1)CCC1CCNCC1)NCC(NS(=O)(=O)c1ccccc1)C(=O)O (stereo not drawn) [Example 26, 2-[(Phenylsulphonyl)amino]-3-{[2-({4-(4-piperidyl)-2-[2-(4-piperidyl)ethyl]butanoyl}amino)acetyl]amino}propanoic Acid Dihydrochloride] | 5.3e-07 | -41 | -77 | -68 | 440 | -20 |
| CCCc1ccc(S(=O)(=O)NC(CNC(=O)CNC(=O)C(CCC2CCNCC2)CCC2CCNCC2)C(=O)O)cc1 (stereo not drawn) [Example 28, 2-{[(4-Propylphenyl)sulphonyl]amino}-3-{[2-({4-(4-piperidyl)-2-[2-(4-piperidyl)ethyl]butanoyl}amino)acetyl]amino}propanoic Acid Dihydrochloride] | 1.1e-06 | -18 | -73 | -75 | 1500 |  |
| O=C(O)C[C@H](NC(=O)CNC(=O)C(CCC1CCNCC1)CCC1CCNCC1)C(=O)N1CCC(Cc2ccccc2)CC1 [Example 29, (3S)-4-oxo-4-(4-Benzylpiperidino)-3-{[2-({4-(4-piperidyl)-2-[2-(4-piperidyl)ethyl]butanoyl}amino)acetyl]amino}-butanoic Acid Dihydrochloride] | 1e-05 |  | -35 | -23 | 13000 |  |
| O=C(CNC(=O)C(CCC1CCNCC1)CCC1CCNCC1)NCC(NS(=O)(=O)c1ccc(-c2ccccc2)cc1)C(=O)O (stereo not drawn) [Example 30, 2-[([1,1-Biphenyl]-4-ylsulphonyl)amino]-3-{[2-({4-(4-piperidyl)-2-[2-(4-piperidyl)ethyl]butanoyl}amino)acetyl]amino}propanoic Acid Dihydrochloride] | 1.4e-07 | -67 |  | -72 | 120 |  |
| O=C(CNC(=O)C(CCC1CCNCC1)CCC1CCNCC1)NCC(NS(=O)(=O)c1cccc2ccccc12)C(=O)O (stereo not drawn) [Example 31, 2-[(1-Naphthylsulphonyl)amino]-3-{[2-({4-(4-piperidyl)-2-[2-(4-piperidyl)ethyl]butanoyl}amino)acetyl]amino}propanoic Acid Dihydrochloride] | 5.8e-07 | -81 |  |  | 44 | -81 |
| O=C(CNC(=O)C(CCC1CCNCC1)CCC1CCNCC1)NCC(NS(=O)(=O)c1cccs1)C(=O)O (stereo not drawn) [Example 33, 2-[(2-Thienylsulphonyl)amino]-3-{[2-({4-(4-piperidyl)-2-[2-(4-piperidyl)ethyl]butanoyl}amino)acetyl]amino}propanoic Acid Dihydrochloride] | 4.9e-07 | -14 |  |  | 710 | -5 |

Reference: patent US6333338A, “Bispiperidines as antithrombotic agents” (Laboratoire L. Lafon, priority 1998, dated 2001)
